Source: ChEMBL document CHEMBL1141596, “A new class of bradykinin B1 receptor antagonists with high oral bioavailability and minimal PXR activity” (Bioorg Med Chem Lett, 2008)

Tested on: not listed separately
Experiment: Apparent permeability by cell based assay
Type: ADME
Details: not told

Row | Compound | Papp [×10⁻⁶ cm/s]
1 | C[C@@H](NC(=O)C1(NC(=O)c2cc(Cl)no2)CC1)c1ncc(-c2cc(Cl)cc(Cl)c2OCC(F)F)cc1F | 26
2 | CCc1cc(C(=O)NC2(C(=O)N[C@H](C)c3ncc(-c4cc(Cl)cc(Cl)c4OCC(F)F)cc3F)CC2)no1 | 25
3 | CCOc1cc(C(=O)NC2(C(=O)N[C@H](C)c3ncc(-c4cc(Cl)cc(Cl)c4OCC(F)F)cc3F)CC2)on1 | 25
4 | C[C@@H](NC(=O)C1(NC(=O)c2cc(C3CC3)on2)CC1)c1ncc(-c2cc(Cl)cc(Cl)c2OCC(F)F)cc1F | 18
5 | C[C@@H](NC(=O)C1(NC(=O)c2ccno2)CC1)c1ncc(-c2cc(Cl)cc(Cl)c2OCC(F)F)cc1F | 29
6 | C[C@@H](NC(=O)C1(NC(=O)C(F)(F)F)CC1)c1ccc(-c2cc(Cl)cc(Cl)c2OCC(F)F)cc1F | 26
7 | C[C@@H](NC(=O)C1(NC(=O)c2ccon2)CC1)c1ncc(-c2cc(Cl)cc(Cl)c2OCC(F)F)cc1F | 35

Tested on: not listed separately
Experiment: Clearance in Sprague-Dawley rat at 10 mg/kg, po or 2 mg/kg, iv
Type: ADME, organism-based
Details: in vivo

Row | Compound | clearance [mL/min/kg]
8 | C[C@@H](NC(=O)C1(NC(=O)C(F)(F)F)CC1)c1ccc(-c2cc(Cl)cc(Cl)c2OCC(F)F)cc1F | 5.8

Tested on: not listed separately
Experiment: Half life in Sprague-Dawley rat at 10 mg/kg, po or 2 mg/kg, iv
Type: ADME, organism-based
Details: in vivo

Row | Compound | half-life [h]
9 | C[C@@H](NC(=O)C1(NC(=O)C(F)(F)F)CC1)c1ccc(-c2cc(Cl)cc(Cl)c2OCC(F)F)cc1F | 7.6

Target: T1, B1 bradykinin receptor (Homo sapiens, UniProt P46663)
T1 sequence (P46663 whole entry): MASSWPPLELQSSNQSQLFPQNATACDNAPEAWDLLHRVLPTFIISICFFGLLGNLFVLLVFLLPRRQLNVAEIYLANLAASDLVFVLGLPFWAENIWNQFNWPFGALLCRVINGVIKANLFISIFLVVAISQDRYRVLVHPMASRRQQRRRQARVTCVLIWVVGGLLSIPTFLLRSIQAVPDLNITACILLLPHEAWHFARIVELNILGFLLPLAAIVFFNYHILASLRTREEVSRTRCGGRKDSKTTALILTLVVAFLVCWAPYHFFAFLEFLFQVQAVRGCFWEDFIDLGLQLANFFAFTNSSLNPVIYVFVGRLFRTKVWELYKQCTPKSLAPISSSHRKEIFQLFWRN
Experiment: Binding affinity to human bradykinin B1 receptor expressed in rat CNS
Details: not given

Row | Compound | Ki [pM]
10 | CCc1cc(C(=O)NC2(C(=O)N[C@H](C)c3ncc(-c4cc(Cl)cc(Cl)c4OCC(F)F)cc3F)CC2)no1 | 1900
11 | CCOc1cc(C(=O)NC2(C(=O)N[C@H](C)c3ncc(-c4cc(Cl)cc(Cl)c4OCC(F)F)cc3F)CC2)on1 | 1100
12 | COC(=O)c1c(Cl)cc(Cl)cc1-c1ccc([C@@H](C)NC(=O)C2(NC(=O)c3cc(OC)no3)CC2)c(F)c1 | 400
13 | C[C@@H](NC(=O)C1(NC(=O)c2cc(C3CC3)on2)CC1)c1ncc(-c2cc(Cl)cc(Cl)c2OCC(F)F)cc1F | 2600
14 | C[C@@H](NC(=O)C1(NC(=O)c2ccno2)CC1)c1ncc(-c2cc(Cl)cc(Cl)c2OCC(F)F)cc1F | 400
15 | C[C@@H](NC(=O)C1(NC(=O)C(F)(F)F)CC1)c1ccc(-c2cc(Cl)cc(Cl)c2OCC(F)F)cc1F | 200
16 | C[C@@H](NC(=O)C1(NC(=O)c2ccon2)CC1)c1ncc(-c2cc(Cl)cc(Cl)c2OCC(F)F)cc1F | 1200

The remaining molecules from weak to strong by Ki, led by results:

Row | Ki [pM] | Compound
17 | 2300 | CC(C)Oc1c(Cl)cc(Cl)cc1-c1ccc([C@@H](C)NC(=O)C2(NC(=O)C(F)(F)F)CC2)c(F)c1
18 | 400 | COC(=O)c1c(Cl)cc(Cl)cc1-c1ccc([C@@H](C)NC(=O)C2(NC(=O)C(F)(F)F)CC2)c(F)c1
19 | 200 | C[C@@H](NC(=O)C1(NC(=O)c2cc(Cl)no2)CC1)c1ncc(-c2cc(Cl)cc(Cl)c2OCC(F)F)cc1F

Tested on: not listed separately
Experiment: Clearance in rhesus monkey at 3 mg/kg, po or 1 mg/kg, iv
Type: ADME, organism-based, Macaca mulatta
Details: in vivo

Row | Compound | clearance [mL/min/kg]
20 | COC(=O)c1c(Cl)cc(Cl)cc1-c1ccc([C@@H](C)NC(=O)C2(NC(=O)C(F)(F)F)CC2)c(F)c1 | 11.2

Tested on: not listed separately
Experiment: Half life in Mongrel dog at 1 mg/kg, iv
Type: ADME, organism-based, Canis lupus familiaris
Design: dose 1 mg/kg, route intravenous
Details: in vivo

Row | Compound | half-life [h]
21 | CCc1cc(C(=O)NC2(C(=O)N[C@H](C)c3ncc(-c4cc(Cl)cc(Cl)c4OCC(F)F)cc3F)CC2)no1 | 4.5
22 | CCOc1cc(C(=O)NC2(C(=O)N[C@H](C)c3ncc(-c4cc(Cl)cc(Cl)c4OCC(F)F)cc3F)CC2)on1 | 13.5
23 | C[C@@H](NC(=O)C1(NC(=O)c2cc(C3CC3)on2)CC1)c1ncc(-c2cc(Cl)cc(Cl)c2OCC(F)F)cc1F | 6.9
24 | C[C@@H](NC(=O)C1(NC(=O)c2ccno2)CC1)c1ncc(-c2cc(Cl)cc(Cl)c2OCC(F)F)cc1F | 4
25 | C[C@@H](NC(=O)C1(NC(=O)c2ccon2)CC1)c1ncc(-c2cc(Cl)cc(Cl)c2OCC(F)F)cc1F | 18

Now from value to molecule:

Row | half-life [h] | Compound
26 | 1.6 | COC(=O)c1c(Cl)cc(Cl)cc1-c1ccc([C@@H](C)NC(=O)C2(NC(=O)C(F)(F)F)CC2)c(F)c1
27 | 34 | C[C@@H](NC(=O)C1(NC(=O)c2cc(Cl)no2)CC1)c1ncc(-c2cc(Cl)cc(Cl)c2OCC(F)F)cc1F

Tested on: not listed separately
Experiment: Ratio of permeability from basolateral to apical over apical to basolateral side in P-gp expressing cells
Details: not given

Row | Compound | Ratio
28 | C[C@@H](NC(=O)C1(NC(=O)c2cc(Cl)no2)CC1)c1ncc(-c2cc(Cl)cc(Cl)c2OCC(F)F)cc1F | 1.6
29 | CCc1cc(C(=O)NC2(C(=O)N[C@H](C)c3ncc(-c4cc(Cl)cc(Cl)c4OCC(F)F)cc3F)CC2)no1 | 2
30 | CCOc1cc(C(=O)NC2(C(=O)N[C@H](C)c3ncc(-c4cc(Cl)cc(Cl)c4OCC(F)F)cc3F)CC2)on1 | 2.1
31 | COC(=O)c1c(Cl)cc(Cl)cc1-c1ccc([C@@H](C)NC(=O)C2(NC(=O)c3cc(OC)no3)CC2)c(F)c1 | 5.1
32 | C[C@@H](NC(=O)C1(NC(=O)c2cc(C3CC3)on2)CC1)c1ncc(-c2cc(Cl)cc(Cl)c2OCC(F)F)cc1F | 3.8
33 | C[C@@H](NC(=O)C1(NC(=O)c2ccno2)CC1)c1ncc(-c2cc(Cl)cc(Cl)c2OCC(F)F)cc1F | 3.9
34 | C[C@@H](NC(=O)C1(NC(=O)c2ccon2)CC1)c1ncc(-c2cc(Cl)cc(Cl)c2OCC(F)F)cc1F | 1.8

Target: T2, PXR (Nuclear receptor subfamily 1 group I member 2) (Homo sapiens, UniProt O75469)
T2 sequence (O75469 whole entry): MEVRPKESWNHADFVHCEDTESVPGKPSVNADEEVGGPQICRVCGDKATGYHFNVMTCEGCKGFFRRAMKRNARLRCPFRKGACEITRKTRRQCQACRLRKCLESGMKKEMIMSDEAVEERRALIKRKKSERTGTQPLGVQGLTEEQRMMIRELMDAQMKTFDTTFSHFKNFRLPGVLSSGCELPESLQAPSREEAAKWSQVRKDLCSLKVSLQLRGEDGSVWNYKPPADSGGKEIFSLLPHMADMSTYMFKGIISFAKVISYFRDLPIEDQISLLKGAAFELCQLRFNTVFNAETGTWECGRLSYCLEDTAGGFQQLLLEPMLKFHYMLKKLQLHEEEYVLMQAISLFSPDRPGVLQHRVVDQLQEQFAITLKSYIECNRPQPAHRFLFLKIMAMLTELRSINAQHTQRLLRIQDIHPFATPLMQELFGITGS
Experiment: Reduction of PXR activation at 10 uM relative to rifampicin
Design: scale not given: the % may be the effect or the level left
Details: read-out: Activity

Row | Compound | activity at 10 µM [%]
35 | CCc1cc(C(=O)NC2(C(=O)N[C@H](C)c3ncc(-c4cc(Cl)cc(Cl)c4OCC(F)F)cc3F)CC2)no1 | 37
36 | CCOc1cc(C(=O)NC2(C(=O)N[C@H](C)c3ncc(-c4cc(Cl)cc(Cl)c4OCC(F)F)cc3F)CC2)on1 | 37
37 | COC(=O)c1c(Cl)cc(Cl)cc1-c1ccc([C@@H](C)NC(=O)C2(NC(=O)c3cc(OC)no3)CC2)c(F)c1 | 40
38 | C[C@@H](NC(=O)C1(NC(=O)c2cc(C3CC3)on2)CC1)c1ncc(-c2cc(Cl)cc(Cl)c2OCC(F)F)cc1F | 58
39 | C[C@@H](NC(=O)C1(NC(=O)c2ccno2)CC1)c1ncc(-c2cc(Cl)cc(Cl)c2OCC(F)F)cc1F | 21
40 | C[C@@H](NC(=O)C1(NC(=O)C(F)(F)F)CC1)c1ccc(-c2cc(Cl)cc(Cl)c2OCC(F)F)cc1F | 95
41 | C[C@@H](NC(=O)C1(NC(=O)c2ccon2)CC1)c1ncc(-c2cc(Cl)cc(Cl)c2OCC(F)F)cc1F | 23

Now from value to molecule:

Row | activity at 10 µM [%] | Compound
42 | 77 | COC(=O)c1c(Cl)cc(Cl)cc1-c1ccc([C@@H](C)NC(=O)C2(NC(=O)C(F)(F)F)CC2)c(F)c1
43 | 68 | C[C@@H](NC(=O)C1(NC(=O)c2cc(Cl)no2)CC1)c1ncc(-c2cc(Cl)cc(Cl)c2OCC(F)F)cc1F

Tested on: not listed separately
Experiment: Clearance in Mongrel dog at 1 mg/kg, iv
Type: ADME, organism-based, Canis lupus familiaris
Design: dose 1 mg/kg, route intravenous
Details: in vivo

Row | Compound | clearance [mL/min/kg]
44 | CCc1cc(C(=O)NC2(C(=O)N[C@H](C)c3ncc(-c4cc(Cl)cc(Cl)c4OCC(F)F)cc3F)CC2)no1 | 14
45 | CCOc1cc(C(=O)NC2(C(=O)N[C@H](C)c3ncc(-c4cc(Cl)cc(Cl)c4OCC(F)F)cc3F)CC2)on1 | 3
46 | C[C@@H](NC(=O)C1(NC(=O)c2cc(C3CC3)on2)CC1)c1ncc(-c2cc(Cl)cc(Cl)c2OCC(F)F)cc1F | 13
47 | C[C@@H](NC(=O)C1(NC(=O)c2ccno2)CC1)c1ncc(-c2cc(Cl)cc(Cl)c2OCC(F)F)cc1F | 5.9
48 | C[C@@H](NC(=O)C1(NC(=O)c2ccon2)CC1)c1ncc(-c2cc(Cl)cc(Cl)c2OCC(F)F)cc1F | 2

More lines, now with the values ahead:

Row | clearance [mL/min/kg] | Compound
49 | 20 | COC(=O)c1c(Cl)cc(Cl)cc1-c1ccc([C@@H](C)NC(=O)C2(NC(=O)C(F)(F)F)CC2)c(F)c1
50 | 2.6 | C[C@@H](NC(=O)C1(NC(=O)c2cc(Cl)no2)CC1)c1ncc(-c2cc(Cl)cc(Cl)c2OCC(F)F)cc1F
